Laboratory results: US20140296255A1, “LYSINE DEMETHYLASE INHIBITORS FOR THROMBOSIS AND CARDIOVASCULAR DISEASES” (ORYZONG GENOMICS, S.A., priority 2011, published 2014)
Where two headings read alike, the source gives them in different places.

How the values were obtained:
[1] = system: H3K4 methylation in SH-SY5Y cells; test: Western blot for dimethylated H3K4 in SH-SY5Y cells; assay type: cell-based
Excerpt: B-actin was used as a loading control.

[2] = biological target: T1, Human recombinant LSD1 protein (Homo sapiens, UniProt O60341); test: LSD1 demethylase inhibition, Amplex Red peroxide/peroxidase-coupled assay; assay type: biochemical; conditions: further, more elaborate determination (Table 1)
T1 construct: purchased BPS Bioscience Inc
Excerpt: Compounds for use in the methods of the invention can be identified by their ability to inhibit LSD1. The ability of compounds to inhibit LSD1 can be tested as follows. Human recombinant LSD1 protein was purchased from BPS Bioscience Inc. In order to monitor LSD1 enzymatic activity and/or its inhibition rate by the LSD1 inhibitor(s) of interest, di-methylated H3-K4 peptide (Millipore) was chosen as a substrate. The demethylase activity was estimated, under aerobic conditions, by measuring the release of H2O2 produced during the catalytic process, using the Amplex® Red peroxide/peroxidase-coupled assay kit (Invitrogen).
Within the experiment, each concentration of inhibitor was tested in duplicate. […] The enzymatic reactions were set up in a 50 mM sodium phosphate, pH 7.4 buffer. At the end of the incubation, Amplex® Red reagent and horseradish peroxidase (HPR) solution were added to the reaction according to the recommendations provided by the supplier (Invitrogen), and left to incubate for 30 extra minutes at room temperature in the dark. A 1 μM H2O2 solution was used as a control of the kit efficiency. The conversion of the Amplex® Red reagent to resorufin due to the presence of H2O2 in the assay, was monitored by fluorescence (excitation at 540 nm, emission at 590 nm) using a microplate reader (Infinite 200, Tecan). Arbitrary units were used to measure level of H2O2 produced in the absence and/or in the presence of inhibitor.
The maximum demethylase activity of LSD1 was obtained in the absence of inhibitor and corrected for background fluorescence in the absence of LSD1. The Ki (IC50) of each inhibitor was estimated at half of the maximum activity.

[3] = biological target: T2, Human recombinant monoamine oxidase MAO-A (Homo sapiens, UniProt P21397); test: MAO-A inhibition, kynuramine fluorescence assay; assay type: biochemical
T2 construct: purchased Sigma Aldrich
T2 sequence (P21397 1-527): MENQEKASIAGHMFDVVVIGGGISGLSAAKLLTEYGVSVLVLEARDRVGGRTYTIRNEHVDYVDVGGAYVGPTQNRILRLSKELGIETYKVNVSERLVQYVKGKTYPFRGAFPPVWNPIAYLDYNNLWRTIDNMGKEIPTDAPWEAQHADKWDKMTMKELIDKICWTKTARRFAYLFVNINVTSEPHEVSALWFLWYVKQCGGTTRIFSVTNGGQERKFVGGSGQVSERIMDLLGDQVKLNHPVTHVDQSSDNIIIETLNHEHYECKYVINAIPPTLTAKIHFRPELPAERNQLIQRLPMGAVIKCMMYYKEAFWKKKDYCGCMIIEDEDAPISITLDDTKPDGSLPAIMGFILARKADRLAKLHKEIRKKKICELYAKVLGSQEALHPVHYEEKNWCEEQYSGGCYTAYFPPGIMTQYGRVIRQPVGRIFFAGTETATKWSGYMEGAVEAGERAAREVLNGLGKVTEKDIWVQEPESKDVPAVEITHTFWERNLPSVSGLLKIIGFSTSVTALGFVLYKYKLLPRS
Excerpt: (§1) Human recombinant monoamine oxidase proteins MAO-A and MAO-B were purchased from Sigma Aldrich. MAOs catalyze the oxidative deamination of primary, secondary and tertiary amines. In order to monitor MAO enzymatic activities and/or their inhibition rate by inhibitor(s) of interest, a fluorescent-based (inhibitor)-screening assay was set up. 3-(2-Aminophenyl)-3-oxopropanamine (kynuramine dihydrobromide, Sigma Aldrich), a non fluorescent compound was chosen as a substrate. Kynuramine is a non-specific substrate for both MAOs activities. While undergoing oxidative deamination by MAO activities, kynuramine is converted into 4-hydroxyquinoline (4-HQ), a resulting fluorescent product.
(§2) The monoamine oxidase activity was estimated by measuring the conversion of kynuramine into 4-hydroxyquinoline. Assays were conducted in 96-well black plates with clear bottom (Corning) in a final volume of 100 μL. The assay buffer was 100 mM HEPES, pH 7.5. Each experiment was performed in duplicate within the same experiment.
(§3) Briefly, a fixed amount of MAO (0.25 μg for MAO-A and 0.5 μg for MAO-B) was incubated on ice for 15 minutes in the reaction buffer, in the absence and/or in the presence of various concentrations of inhibitor (e.g., from 0 to 50 μM, depending on the inhibitor strength).
(§4) After leaving the enzyme(s) interacting with the inhibitor, 60 to 90 μM of kynuramine was added to each reaction for MAO-B and MAO-A assay respectively, and the reaction was left for one hour at 37° C. in the dark. The oxidative deamination of the substrate was stopped by adding 50 μL (v/v) of NaOH 2N. The conversion of kynuramine to 4-hydroxyquinoline, was monitored by fluorescence (excitation at 320 nm, emission at 360 nm) using a microplate reader (Infinite 200, Tecan). Arbitrary units were used to measure levels of fluorescence produced in the absence and/or in the presence of inhibitor.
(§5) The Ki (IC50) of each inhibitor was determined at Vmax/2.

platelets = test: Platelet levels in mice after five once daily i.p. injections; assay type: in vivo, mice (Hsd:Athymic Nude-Foxnlnu); conditions: blood 60 minutes after last administration
Method: On the fifth day, 60 minutes after the administration, mice were sacrificed and blood was collected in sodium citrate-containing tubes for hemogram analysis. […] Platelet levels were determined in a standard hematology analyzer (Abacus Junior Vet, from Diatron) following the manufacturer's instructions.
(§6) 20% 2-hydroxypropyl-j3-cyclodextrin in H2O was used as a vehicle. When necessary, 10% DMSO was also added in the vehicle. Each day, compounds were administered in a single intraperitoneal injection with administration volumes of 15 ml/kg.
(§7) Mice strain was Hsd:Athymic Nude-Foxnlnu. Animals were maintained in air and temperature controlled cages with regular supply of water and food.

[4] = biological target: T3, Human recombinant monoamine oxidase MAO-B (Homo sapiens, UniProt P27338); test: MAO-B inhibition, kynuramine fluorescence assay; assay type: biochemical; conditions: further, more elaborate determination (Table 1)
T3 construct: purchased Sigma Aldrich
T3 sequence (P27338 1-520): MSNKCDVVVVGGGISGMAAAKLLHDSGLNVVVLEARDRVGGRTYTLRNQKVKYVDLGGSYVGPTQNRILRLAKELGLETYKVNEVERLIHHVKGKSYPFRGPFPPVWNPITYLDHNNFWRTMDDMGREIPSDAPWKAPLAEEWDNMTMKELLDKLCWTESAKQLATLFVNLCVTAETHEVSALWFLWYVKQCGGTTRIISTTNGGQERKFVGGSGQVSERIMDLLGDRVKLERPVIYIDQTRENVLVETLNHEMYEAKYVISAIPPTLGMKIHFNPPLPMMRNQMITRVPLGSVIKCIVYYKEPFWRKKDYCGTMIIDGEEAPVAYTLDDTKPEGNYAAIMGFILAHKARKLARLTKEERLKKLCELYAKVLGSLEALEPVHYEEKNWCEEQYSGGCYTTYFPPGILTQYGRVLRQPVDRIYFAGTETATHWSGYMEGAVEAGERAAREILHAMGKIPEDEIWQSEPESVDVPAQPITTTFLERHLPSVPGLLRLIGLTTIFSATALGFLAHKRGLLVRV
Excerpt: as §1, §2, §3, §4, §5

Granulocytes = test: Granulocyte levels in mice after five once daily injections; assay type: in vivo, mice (Hsd:Athymic Nude-Foxnlnu); conditions: five consecutive days
Method: (§8) On the fifth day, 60 minutes after the administration, mice were sacrificed and blood was collected in sodium citrate-containing tubes for hemogram analysis. Platelet levels were determined and referred as % of platelets compared with the levels found in mice treated with vehicle. Platelet levels were determined in a standard hematology analyzer (Abacus Junior Vet, from Diatron) following the manufacturer's instructions.
as §6, §7
(§9) Measurements of all blood cell types were conducted in the same manner as described above for platelets. Data in the table above are expressed as the % of cells vs vehicle.

Lymphocytes = test: Lymphocyte levels in mice after five once daily injections; assay type: in vivo, mice (Hsd:Athymic Nude-Foxnlnu); conditions: five consecutive days
Method: as §8, §6, §7, §9

White Blood Cells = test: White blood cell levels in mice after five once daily injections; assay type: in vivo, mice (Hsd:Athymic Nude-Foxnlnu); conditions: five consecutive days
Method: as §8, §6, §7, §9

Red blood cells = test: Red blood cell levels in mice after five once daily injections; assay type: in vivo, mice (Hsd:Athymic Nude-Foxnlnu); conditions: five consecutive days
Method: as §8, §6, §7, §9

[5] = further, more elaborate determination (Table 1), read-out: MAO-A IC50
[6] = 10 mg/kg i.p. once daily for five days
[7] = 20 mg/kg i.p. once daily for five days
[8] = 40 mg/kg i.p. once daily for five days
[9] = 3 mg/kg i.p. once daily for five days
[10] = 30 mg/kg i.p. once daily for five days

NC(=O)CN[C@H]1C[C@@H]1c1ccc(OCc2ccccc2)cc1 (racemic) [Compound 1]
potency at increasing global dimethylated H3K4 levels as compared to tranylcypromine ([1]; Dual-1 at 100 μM vs parnate at 250 μM): ten-fold or more potent
H3K4 methylation (western blot) ([1]; compound at 100 μM, one, two, and three days): increases H3K4 methylation in cells in a time dependent manner
IC50 [2]: < 200 nM
IC50 [3, 5]: > 2000 nM
% platelets vs. Vehicle (platelets; 5 mg/kg i.p. once daily for five days): 91%
% platelets vs. Vehicle (platelets; [6]): 66%
% platelets vs. Vehicle (platelets; [7]): 55%
% platelets vs. Vehicle (platelets; [8]): 34%

N[C@H]1C[C@@H]1c1ccc(-c2cccc(O)c2)cc1 (racemic) [Compound 7]
IC50 [2]: < 70 nM
IC50 [3, 5]: > 200 nM
IC50 ([3]; initial determination, read-out: IC50 for MAO-A): > 1000 nM
% platelets vs. Vehicle (platelets; 17 mg/kg i.p. once daily for five days): 56%
% platelets vs. Vehicle (platelets; 34 mg/kg i.p. once daily for five days): 46%
% platelets vs. Vehicle (platelets; 52 mg/kg i.p. once daily for five days): 63%
IC50 [4]: > 1000 nM

CN1CCN(C(=O)CN[C@H]2C[C@@H]2c2ccc(OCc3ccccc3)cc2)CC1 (racemic) [Compound 3]
Granulocytes, % of cells vs vehicle (Granulocytes; 1 mg/kg): 69%
Granulocytes, % of cells vs vehicle (Granulocytes; 3 mg/kg): 63%
Granulocytes, % of cells vs vehicle (Granulocytes; 10 mg/kg): 23%
Lymphocytes, % of cells vs vehicle (Lymphocytes; 1 mg/kg): 115%
Lymphocytes, % of cells vs vehicle (Lymphocytes; 3 mg/kg): 90%
Lymphocytes, % of cells vs vehicle (Lymphocytes; 10 mg/kg): 35%
IC50 [3, 5]: > 2000 nM
% platelets vs. Vehicle (platelets; 1 mg/kg i.p. once daily for five days): 46%
% platelets vs. Vehicle (platelets; [9]): 16%
% platelets vs. Vehicle (platelets; [6]): 5%
White Blood Cells, % of cells vs vehicle (White Blood Cells; 1 mg/kg): 86%
White Blood Cells, % of cells vs vehicle (White Blood Cells; 3 mg/kg): 76%
White Blood Cells, % of cells vs vehicle (White Blood Cells; 10 mg/kg): 29%
Red blood cells, % of cells vs vehicle (Red blood cells; 1 mg/kg): 103%
Red blood cells, % of cells vs vehicle (Red blood cells; 3 mg/kg): 101%
Red blood cells, % of cells vs vehicle (Red blood cells; 10 mg/kg): 92%

NC(=O)CN[C@H]1C[C@@H]1c1ccc(OCc2ccccc2)cc1 (single isomer, unassigned) [Compound 2]
IC50 [2]: < 200 nM
IC50 [3, 5]: > 2000 nM
% platelets vs. Vehicle (platelets; [7]): 35%
% platelets vs. Vehicle (platelets; [8]): 27%
% platelets vs. Vehicle (platelets; 60 mg/kg i.p. once daily for five days): 16%

N[C@H]1CCN(CCN[C@H]2C[C@@H]2c2ccc(-c3cccc(C(F)(F)F)c3)cc2)C1 (racemic) [Compound 4]
IC50 [2]: < 100 nM
IC50 [3, 5]: > 2000 nM
% platelets vs. Vehicle (platelets; [9]): 87%
% platelets vs. Vehicle (platelets; 9 mg/kg i.p. once daily for five days): 30%
% platelets vs. Vehicle (platelets; [6]): 19%
% platelets vs. Vehicle (platelets; 18 mg/kg i.p. once daily for five days): 19%
% platelets vs. Vehicle (platelets; [10]): 7%
% platelets vs. Vehicle (platelets; 36 mg/kg i.p. once daily for five days): 11%
IC50 [4]: > 2000 nM

CC(C)S(=O)(=O)Nc1cccc(-c2ccc([C@H]3C[C@@H]3N)cc2)c1 (racemic) [Compound 9]
IC50 [2]: < 70 nM
IC50 [3, 5]: > 1000 nM
% platelets vs. Vehicle (platelets; [10]): 10%
IC50 [4]: > 10000 nM

CS(=O)(=O)Nc1cccc(-c2ccc([C@H]3C[C@@H]3N)cn2)c1 (racemic) [Compound 8]
% platelets vs. Vehicle (platelets; [7]): 68%
% platelets vs. Vehicle (platelets; [8]): 44%

N[C@H]1C[C@@H]1c1ccc(-c2cccc(C(F)(F)F)c2)nc1 (racemic) [Compound 6]
% platelets vs. Vehicle (platelets; [6]): 87%
% platelets vs. Vehicle (platelets; [10]): 63%
